Test [1] relates to Ctenocephalides felis. Kind of test: In vitro contact test with fleas. The conditions noted are these: read-out: insecticidal activity; for pest or weed control at 0.04 µg/cm2, 0.04 µg/cm2: dose 0.04 μg/cm^2, dead or moribund fleas after 48 h; for pest or weed control at 0.2 µg/cm2, 0.2 µg/cm2: dose 0.2 μg/cm^2, dead or moribund fleas after 48 h; for pest or weed control at 1 µg/cm2, 1 µg/cm2: dose 1 μg/cm^2, dead or moribund fleas after 48 h. Summed up:
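Activity is the percentage of fleas dead or moribund at 48 h, judged by immobility or uncoordinated movement after tapping. Tubes were coated by evaporating acetone solutions (900 ppm gives 5 μg/cm^2), then held 5-10 adult fleas of both sexes at room temperature and ambient humidity.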

The test system of another test is Dermacentor variabilis. Description: In vitro contact test with adult hard ticks (Dermacentor variabilis). The conditions noted are these: read-out: acaricidal activity; for pest or weed control at 0.2 µg/cm2, 0.2 µg/cm2: dose 0.2 μg/cm^2, 48 h; for pest or weed control at 1 µg/cm2, 1 µg/cm2: dose 1 μg/cm^2, 48 h. Summed up: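 Acaricidal activity = % ticks dead or moribund after 48 h contact with acetone-deposited compound on vial walls (e.g., 900 ppm solution → 5 μg/cm^2). Ambient conditions for R. sanguineus, 21° C./85% rel. hum. for other species; heat challenge at 45-50° C. separated climbers from moribund ticks.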

Test [2] deals with Rhipicephalus (Boophilus) microplus. Description: In vitro injection test with Rhipicephalus (Boophilus) microplus (BOOPMI Inj). The note with it: 168 h, laid fertile eggs after 7 days, read-out: acaricidal activity; for pest or weed control at 32 ng: dose 0.032 μg/animal injected; for pest or weed control at 0.00016 mg: dose 0.16 μg/animal injected; for pest or weed control at 0.0008 mg: dose 0.8 μg/animal injected. Summed up:
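Five engorged adult females each get a 1 μl abdominal injection of compound dissolved and diluted in DMSO. Kept 7 days at 28° C./85% rel. hum.; percent activity rates egg laying and egg fertility (0% all fertile, 100% none laid or infertile).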

Test [3] relates to Ctenocephalides felis. Kind of test: Ctenocephalides felis in-vitro feeding test with fleas (CTECFE oral). The conditions noted are these: 48 hours, read-out: insecticidal feeding activity; for pest or weed control at 0.032 ppm: dose 0.032 ppm in citrated cattle blood; for pest or weed control at 0.16 ppm: dose 0.16 ppm in citrated cattle blood; for pest or weed control at 0.8 ppm: dose 0.8 ppm in citrated cattle blood; for pest or weed control at 4 ppm: dose 4 ppm in citrated cattle blood; for pest or weed control at 0.0064 ppm: dose 0.0064 ppm in citrated cattle blood. Summed up:
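Scored as percent fleas killed (0–100%) 48 hours after feeding began. Compound, dissolved in DMSO and diluted into citrated cattle blood, was offered via a parafilm membrane to roughly 20 adult male and female C. felis at about 37° C.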

Test [4] has as its system Ctenocephalides felis. Description: Systemic treatment in-vivo test with cat flea on rats. The conditions noted are these: Ctenocephalides felis, ip, intraperitoneal injection. Summed up: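 Rats dosed intraperitoneally per body weight in glycerol formal (up to 25% NMP for poorly soluble compounds). 30 D. variabilis nymphs released on treatment day and weekly, 30 C. felis fleas 24 h later; live attached engorged ticks counted at 48 h (±4 h), live fleas at 24 h, efficacy versus placebo group.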

In the next test the test system is Spodoptera litura. Description: Insecticidal testing against common cutworm. It counts as in vivo. The conditions noted are these: foliar, 144 h, concentration 100 ppm, cabbage leaf dip, second-stage larvae, after 6 days, read-out: pesticidal rate. The source says:
Insecticidal Testing Against Common Cutworm (Spodoptera litura)

A further test deals with Plutella xylostella. Description: Insecticidal testing against diamondback moth. It counts as in vivo. The note with it: foliar, 144 h, concentration 100 ppm, cabbage leaf dip, third-stage larvae, after 6 days, read-out: pesticidal rate. The text has this: Insecticidal Testing Against Diamondback Moth (Plutella xylostella)
Where [5] appears, read: SD 2, read-out: Geometric mean percent reduction in live flea (Ctenocephalides felis) counts compared to untreated control rats.
The mark [6] stands for this setting: SD 9, read-out: Geometric mean percent reduction in live flea (Ctenocephalides felis) counts compared to untreated control rats.
Setting [7] is: SD 16, read-out: Geometric mean percent reduction in live flea (Ctenocephalides felis) counts compared to untreated control rats.
The mark [8] stands for this setting: SD 23, read-out: Geometric mean percent reduction in live flea (Ctenocephalides felis) counts compared to untreated control rats.
[9] abbreviates: SD 30, read-out: Geometric mean percent reduction in live flea (Ctenocephalides felis) counts compared to untreated control rats.

Where two headings read alike, the source gives them in different places.

The text below walks through data of US11696913B2, “Prolonged ectoparasite-controlling agent for animal” (MITSUI CHEMICALS AGRO, INC., priority 2017, dated 2023).

For `CN(C(=O)c1ccc(C(F)(F)F)nc1)c1cccc(C(=O)Nc2c(I)cc(C(F)(C(F)(F)F)C(F)(F)C(F)(F)F)cc2C(F)(F)F)c1F` (stereo not drawn) [Compound 119], in the test with Ctenocephalides felis [1], the pest or weed control at 0.04 µg/cm2, 0.04 µg/cm2 worked out at 95%; the pest or weed control at 0.2 µg/cm2, 0.2 µg/cm2 worked out at 95%; the pest or weed control at 1 µg/cm2, 1 µg/cm2 was determined as 95%. In the test with Dermacentor variabilis, the pest or weed control at 0.2 µg/cm2, 0.2 µg/cm2 stood at 90% and the pest or weed control at 1 µg/cm2, 1 µg/cm2 is 90%. Also, in test [2], the pest or weed control at 32 ng was found to be 100%, the pest or weed control at 0.00016 mg came to 100% and the pest or weed control at 0.0008 mg amounted to 100%. Besides, in the test on Ctenocephalides felis [3], the pest or weed control at 0.032 ppm came to 95%, the pest or weed control at 0.16 ppm turned out to be 95%, the pest or weed control at 0.8 ppm was determined as 95% and the pest or weed control at 4 ppm was 95%. In the test with Ctenocephalides felis [4] (setting [5]), the inhibition in vivo at 10 mg/kg is 100%. Also, the inhibition in vivo at 10 mg/kg in the test with Ctenocephalides felis [4] (setting [6]) worked out at 97%. In addition, in the test with Ctenocephalides felis [4] (setting [7]), the inhibition in vivo at 10 mg/kg amounted to 94%. The inhibition in vivo at 10 mg/kg with Ctenocephalides felis [4] (setting [8]) came to 62%. The inhibition in vivo at 10 mg/kg in the test with Ctenocephalides felis [4] (setting [9]) is 44%. Also, the pest or weed control at 100 ppm in the test on Spodoptera litura is no less than 70%. The pest or weed control at 100 ppm in the test with Plutella xylostella is no less than 70%.
With `CN(C(=O)c1ccc(F)c(F)c1)c1cccc(C(=O)Nc2c(I)cc(C(F)(C(F)(F)F)C(F)(F)F)cc2C(F)(F)F)c1F` [Compound 51], in the test on Ctenocephalides felis [1], the pest or weed control at 0.04 µg/cm2, 0.04 µg/cm2 worked out at 95%; the pest or weed control at 0.2 µg/cm2, 0.2 µg/cm2 was 95%; the pest or weed control at 1 µg/cm2, 1 µg/cm2 turned out to be 95%. In the test on Dermacentor variabilis, the pest or weed control at 0.2 µg/cm2, 0.2 µg/cm2 is 90% and the pest or weed control at 1 µg/cm2, 1 µg/cm2 was found to be 90%. In addition, in test [2], the pest or weed control at 32 ng is 100%, the pest or weed control at 0.00016 mg came to 100% and the pest or weed control at 0.0008 mg was found to be 100%. For the same compound, in the test with Ctenocephalides felis [3], the pest or weed control at 0.0064 ppm is 95%, the pest or weed control at 0.032 ppm was determined as 95%, the pest or weed control at 0.16 ppm was determined as 95% and the pest or weed control at 0.8 ppm was 95%. For the same compound, the pest or weed control at 4 ppm in the test with Ctenocephalides felis [3] was 95%. Besides, in the test with Ctenocephalides felis [4] (setting [5]), the inhibition in vivo at 2 mg/kg was determined as 100% and the inhibition in vivo at 10 mg/kg stood at 100%. In addition, in the test with Ctenocephalides felis [4] (setting [6]), the inhibition in vivo at 2 mg/kg was 96% and the inhibition in vivo at 10 mg/kg is 100%. Moreover, in the test on Ctenocephalides felis [4] (setting [7]), the inhibition in vivo at 2 mg/kg stood at 67% and the inhibition in vivo at 10 mg/kg was 98%. Also, in the test on Ctenocephalides felis [4] (setting [8]), the inhibition in vivo at 2 mg/kg was 37% and the inhibition in vivo at 10 mg/kg came to 90%. Besides, the inhibition in vivo at 10 mg/kg in the test with Ctenocephalides felis [4] (setting [9]) worked out at 90%. Moreover, in the test with Spodoptera litura, the pest or weed control at 100 ppm is no less than 70%. The pest or weed control at 100 ppm with Plutella xylostella is no less than 70%.
For the compound `CN(C(=O)c1ccc(F)cc1)c1cccc(C(=O)Nc2c(I)cc(C(F)(C(F)(F)F)C(F)(F)C(F)(F)F)cc2C(F)(F)F)c1F` (stereo not drawn) [Compound 37], in the test on Ctenocephalides felis [1], the pest or weed control at 0.04 µg/cm2, 0.04 µg/cm2 stood at 95%; the pest or weed control at 0.2 µg/cm2, 0.2 µg/cm2 is 95%; the pest or weed control at 1 µg/cm2, 1 µg/cm2 is 95%. In the test on Dermacentor variabilis, the pest or weed control at 0.2 µg/cm2, 0.2 µg/cm2 turned out to be 90% and the pest or weed control at 1 µg/cm2, 1 µg/cm2 is 90%. In test [2] (dose 0.0064 μg/animal injected), the pest or weed control at 6.4 ng worked out at 100%. Besides, in test [2], the pest or weed control at 32 ng came out at 100%, the pest or weed control at 0.00016 mg turned out to be 100% and the pest or weed control at 0.0008 mg is 100%. In the test on Ctenocephalides felis [3], the pest or weed control at 0.032 ppm worked out at 95%, the pest or weed control at 0.16 ppm turned out to be 95%, the pest or weed control at 0.8 ppm was 95% and the pest or weed control at 4 ppm was found to be 95%. In addition, the inhibition in vivo at 10 mg/kg with Ctenocephalides felis [4] (setting [5]) worked out at 100%. Further, the inhibition in vivo at 10 mg/kg in the test on Ctenocephalides felis [4] (setting [6]) worked out at 97%. For the same compound, the inhibition in vivo at 10 mg/kg in the test on Ctenocephalides felis [4] (setting [7]) is 97%. In addition, the inhibition in vivo at 10 mg/kg with Ctenocephalides felis [4] (setting [8]) stood at 100%. In addition, in the test with Ctenocephalides felis [4] (setting [9]), the inhibition in vivo at 10 mg/kg worked out at 80%.
For the compound `CN(C(=O)c1ccc(F)nc1)c1cccc(C(=O)Nc2c(I)cc(C(F)(C(F)(F)F)C(F)(F)F)cc2C(F)(F)F)c1F` [Compound 115, 6-fluoro-N-(2-fluoro-3-((2-iodo-4-(perfluoropropan-2-yl)-6-(trifluoromethyl)phenyl)carbamoyl)phenyl)-N-methylnicotinamide], in the test on Ctenocephalides felis [1], the pest or weed control at 0.04 µg/cm2, 0.04 µg/cm2 is 95%; the pest or weed control at 0.2 µg/cm2, 0.2 µg/cm2 is 95%; the pest or weed control at 1 µg/cm2, 1 µg/cm2 is 95%. Also, in the test with Dermacentor variabilis, the pest or weed control at 0.2 µg/cm2, 0.2 µg/cm2 was 90% and the pest or weed control at 1 µg/cm2, 1 µg/cm2 came out at 90%. In test [2], the pest or weed control at 32 ng was 100%, the pest or weed control at 0.00016 mg came to 100% and the pest or weed control at 0.0008 mg was 100%. In the test with Ctenocephalides felis [3], the pest or weed control at 0.0064 ppm was 95%, the pest or weed control at 0.032 ppm worked out at 95%, the pest or weed control at 0.16 ppm amounted to 95% and the pest or weed control at 0.8 ppm was found to be 95%. For the same compound, the pest or weed control at 4 ppm in the test on Ctenocephalides felis [3] is 95%. Moreover, in the test on Ctenocephalides felis [4] (setting [5]), the inhibition in vivo at 2 mg/kg came out at 100% and the inhibition in vivo at 10 mg/kg turned out to be 100%. In addition, in the test on Ctenocephalides felis [4] (setting [6]), the inhibition in vivo at 2 mg/kg came out at 98% and the inhibition in vivo at 10 mg/kg worked out at 100%. Besides, in the test on Ctenocephalides felis [4] (setting [7]), the inhibition in vivo at 2 mg/kg is 73% and the inhibition in vivo at 10 mg/kg was 99%. The inhibition in vivo at 10 mg/kg in the test on Ctenocephalides felis [4] (setting [8]) came to 47%. Also, the inhibition in vivo at 10 mg/kg in the test on Ctenocephalides felis [4] (setting [9]) was 8%. Moreover, the pest or weed control at 100 ppm in the test on Spodoptera litura is no less than 70%. Also, in the test on Plutella xylostella, the pest or weed control at 100 ppm was no less than 70%.
Consider `CN(C(=O)c1ccc(F)cc1)c1cccc(C(=O)Nc2c(I)cc(C(F)(C(F)(F)F)C(F)(F)F)cc2C(F)(F)F)c1F` [Compound 24], for which, in the test with Ctenocephalides felis [1], the pest or weed control at 0.04 µg/cm2, 0.04 µg/cm2 was 95%; the pest or weed control at 0.2 µg/cm2, 0.2 µg/cm2 turned out to be 95%; the pest or weed control at 1 µg/cm2, 1 µg/cm2 is 95%. In addition, in test [2], the pest or weed control at 32 ng is 100%, the pest or weed control at 0.00016 mg was 100% and the pest or weed control at 0.0008 mg worked out at 100%. Also, in the test on Ctenocephalides felis [3], the pest or weed control at 0.8 ppm was found to be 95% and the pest or weed control at 4 ppm turned out to be 95%. The inhibition in vivo at 5 mg/kg with Ctenocephalides felis [4] (setting [5]) was determined as 100%. For the same compound, in the test on Ctenocephalides felis [4] (setting [6]), the inhibition in vivo at 5 mg/kg is 99%. For the same compound, the inhibition in vivo at 5 mg/kg in the test on Ctenocephalides felis [4] (setting [7]) was found to be 99%. Besides, the inhibition in vivo at 5 mg/kg with Ctenocephalides felis [4] (setting [8]) is 36%.
